Where a name gives a salt, the structure may show the parent alone. Read-outs that look alike come from different tables or passages of the source.
Key:
Proteus mirabilis A 235 = experiment: Experimental infection of Proteus mirabilis in mice; assay type: in vivo; conditions: for Mice surviving on 8th day: subcutaneous 1, 5 and 24 hours after infection, controls 0/10; for Mortality after hours: subcutaneous, group of 10 mice
Experimental: Groups of 10 mice with an average weight of 21.5 g received intraperitoneally 0.5 ml of a 24 hour old culture in oxoid bouillon of Proteus mirabilis A 235 diluted 1/10 with distilled water. The mice then received subcutaneously the compound of Example 1 one hour and 5 and 24 hours after the infection and the results are reported in the following Table.

[1] = system: Escherichia Coli Resistant Tetracycline ATCC 11 303; experiment: MIC, dilution in liquid medium; assay type: cell-based
Experimental: (§1) The method used was a dilution of a liquid medium where a series of tubes received the same quantity of a sterile nutritive media and increasing doses of the test compounds were placed therein. Then each tube was seeded with a bacterial strain and was incubated for 24 to 48 hours at 37° C. in an oven. The increasing inhibition was determined by transillulumination to determine the minimum inhibiting concentration (MIC in μg/ml) and the results are reported in the following Tables.

[2] = system: Proteus mirabilis (indol-) A 235; experiment: MIC, dilution in liquid medium; assay type: cell-based
Experimental: as §1

[3] = system: Salmonella typhimurium 420; experiment: MIC, dilution in liquid medium; assay type: cell-based; conditions: Salmonella enterica, read-out: MIC
Experimental: as §1

Enterobacter cloacae 681 = experiment: MIC, dilution in liquid medium; assay type: cell-based
Experimental: as §1

[4] = system: Klebsiella pneumoniae Exp. 52 145; experiment: MIC, dilution in liquid medium; assay type: cell-based; conditions: read-out: MIC
Experimental: as §1

Providencia Du 48 = experiment: MIC, dilution in liquid medium; assay type: cell-based
Experimental: as §1

[5] = system: Escherichia Coli sensitive Tetracycline ATCC 9 637; experiment: MIC, dilution in liquid medium; assay type: cell-based
Experimental: as §1

[6] = system: Staphylococcus aureus ATCC 6 538 Pen Sensitive; experiment: MIC, dilution in liquid medium; assay type: cell-based
Experimental: as §1

[7] = system: Escherichia Coli Resistant Gentamycine, Tobramycine R 55 123 D; experiment: MIC, dilution in liquid medium; assay type: cell-based; conditions: read-out: MIC
Experimental: as §1

[8] = system: Pseudomonas 8951 Resistant Gentamycine Tetracycline; experiment: MIC, dilution in liquid medium; assay type: cell-based
Experimental: as §1

[9] = system: Staphylococcus aureus exp.n°54 146; experiment: MIC, dilution in liquid medium; assay type: cell-based
Experimental: as §1

[10] = system: Klebsiella pneumoniae 2 536 Resistant Gentamycine; experiment: MIC, dilution in liquid medium; assay type: cell-based
Experimental: as §1

[11] = system: Bacillus subtilis ATCC 6 633; experiment: MIC, dilution in liquid medium; assay type: cell-based
Experimental: as §1

[12] = system: Staphylococcus aureus UC 1 128 Pen-resistant; experiment: MIC, dilution in liquid medium; assay type: cell-based
Experimental: as §1

[13] = system: Serratia Resistant Gentamycine 2 532; experiment: MIC, dilution in liquid medium; assay type: cell-based; conditions: read-out: MIC
Experimental: as §1

[14] = system: Streptococcus pyogenes A 561; experiment: MIC, dilution in liquid medium; assay type: cell-based
Experimental: as §1

Escherichia coli TO26 B6 = experiment: Experimental infection with Escherichia coli TO26 B6 in mice; assay type: in vivo; conditions: for No. of mice surviving 8th day: subcutaneous 1, 5 and 24 hours after infection, control 0/10; for Mortality after hours: subcutaneous, group of 10 mice
Experimental: The product of Example 1 was studied for its activity against an experimental infection of Escherichia coil in groups of 10 male mice weighing about 21.5 g. The mice received an intraperitoneal injection of 0.5 ml of a 24 hour old culture in a nutritive media of Escherichia Coli TO26 B6 of the Pasteur Institute diluted 1/5 with distilled water. The test product was administered subcutaneously 1 hour and 5 and 24 hours after the infection and the number of dead was determined after 8 days.

[15] = system: Klebsiella Pneumonia No. 52,145; experiment: Experimental infection of Klebsiella Pneumoniae in mice; assay type: in vivo; conditions: for Mice surviving on 8th day: by injection 1,5 and 24 hours after infection, controls 0/10; for Mortality after hours: by injection, group of 10 mice
Experimental: The activity of the compound of Example 1 against an experimental infection of Klebsiella Pneumonia No. 52,145 was determined on groups of 10 mice having an average weight of 21 g by intraperitoneal injection of 0.5 ml of a culture thereof with a pH of 6 diluted to 1/1500.

Proteus Morganii A236 = experiment: Experimental infection of Proteus Morganii A236 in mice; assay type: in vivo; conditions: for Mice surviving on 8th day: cutaneously 1,5 and 24 hours after injection, controls 0/10; for Mortality after hours: cutaneously, group of 10 mice
Experimental: The activity of the product of Example 1 against an experimental infection of Proteus Morganii […] was determined in groups of 10 mice weighing an average of 20.5 g which were infected by intraperitoneal injection of 0.5 ml of a culture thereof in a medium with a pH of 7 diluted to one tenth.

CC(=O)OCC1=C(C(=O)O)N2C(=O)C(NC(=O)/C(=N\OCCSC(=N)N)c3csc(N)n3)C2SC1 (stereo not drawn) [Example 1, Trifluoroacetate of the syn isomer of 3-acetoxymethyl-7-[2-(2-amino-4-thiazolyl)-2-(2-aminoiminomethylthio-ethoxyimino)acetamido]-ceph-3-eme-4-carboxylic acid]
2 µg/mL: MIC (Enterobacter cloacae 681; Enterobacter cloacae, 681, 24 h) | MIC (Enterobacter cloacae 681; Enterobacter cloacae, 681, 48 h) | MIC (Providencia Du 48; DU48, 24 h) | MIC ([6]; ATCC6, 24 h) | MIC ([6]; ATCC6, 48 h) | MIC ([9]; 24 h) | MIC ([9]; 48 h) | MIC ([10]; 48 h) | MIC ([12]; UC1, 24 h)
20 µg/mL: MIC ([8]; 24 h) | MIC ([8]; 48 h)
0.02 µg/mL: MIC ([14]; A561, 24 h) | MIC ([14]; A561, 48 h)
8/10: Mice surviving on 8th day ([15]; dose 0,25 mg)
0.05 µg/mL: MIC ([1]; ATCC11, 24 h) | MIC ([1]; ATCC11, 48 h)
6/10: No. of mice surviving 8th day (Escherichia coli TO26 B6; dose 0.1 mg) | Mice surviving on 8th day ([15]; dose 0,1 mg)
3: Mortality after hours (Proteus Morganii A236; dose 0,05 mg, 21H10)
0.1 µg/mL: MIC ([2]; 24 h) | MIC ([2]; 48 h)
10/10: Mice surviving on 8th day (Proteus mirabilis A 235; dose 0,1 mg) | Mice surviving on 8th day (Proteus mirabilis A 235; dose 0,05 mg) | Mice surviving on 8th day (Proteus mirabilis A 235; dose 0,5 mg) | Mice surviving on 8th day (Proteus mirabilis A 235; dose 0,25 mg) | No. of mice surviving 8th day (Escherichia coli TO26 B6; dose 0.25 mg) | Mice surviving on 8th day ([15]; dose 1 mg) | Mice surviving on 8th day ([15]; dose 1,5 mg) | Mice surviving on 8th day (Proteus Morganii A236; dose 0,1 mg) | Mice surviving on 8th day (Proteus Morganii A236; dose 0,5 mg) | Mice surviving on 8th day (Proteus Morganii A236; dose 0,25 mg)
3 µg/mL: MIC (Providencia Du 48; DU48, 48 h) | MIC ([12]; UC1, 48 h)
2: Mortality after hours (Proteus Morganii A236; dose 0,05 mg, 6H)
1 µg/mL: MIC ([5]; ATCC9, 24 h) | MIC ([5]; ATCC9, 48 h) | MIC ([10]; 24 h) | MIC ([11]; ATCC6, 24 h) | MIC ([11]; ATCC6, 48 h)
9/10: Mice surviving on 8th day ([15]; dose 0,5 mg)
2/10: Mice surviving on 8th day (Proteus Morganii A236; dose 0,05 mg)
1: Mortality after hours (Proteus mirabilis A 235; dose 0,025 mg, 23H45) | Mortality after hours (Proteus mirabilis A 235; dose 0,025 mg, 25 H) | Mortality after hours (Proteus mirabilis A 235; dose 0,025 mg, 31 H) | Mortality after hours (Escherichia coli TO26 B6; dose 0.1 mg, 21H30) | Mortality after hours (Escherichia coli TO26 B6; dose 0.1 mg, 24 H) | Mortality after hours (Escherichia coli TO26 B6; dose 0.1 mg, 28 H) | Mortality after hours (Escherichia coli TO26 B6; dose 0.1 mg, 36 H) | Mortality after hours ([15]; dose 0,1 mg, 4 J) | Mortality after hours ([15]; dose 0,1 mg, 5 J) | Mortality after hours ([15]; dose 0,1 mg, 6 J) | Mortality after hours ([15]; dose 0,1 mg, 8 J) | Mortality after hours ([15]; dose 0,5 mg, 6 J) | Mortality after hours ([15]; dose 0,25 mg, 4 J) | Mortality after hours ([15]; dose 0,25 mg, 6 J) | Mortality after hours (Proteus Morganii A236; dose 0,05 mg, 4H) | Mortality after hours (Proteus Morganii A236; dose 0,05 mg, 6H15) | Mortality after hours (Proteus Morganii A236; dose 0,05 mg, 45H20)
7/10: Mice surviving on 8th day (Proteus mirabilis A 235; dose 0,025 mg)
0.5 µg/mL: MIC ([3]; 24 h) | MIC ([3]; 48 h) | MIC ([4]; EXP.52145, 24 h) | MIC ([4]; EXP.52145, 48 h) | MIC ([7]; 24 h) | MIC ([7]; 48 h) | MIC ([13]; 24 h) | MIC ([13]; 48 h)

From patent US4426519A, “7-(2-Amino-4-thiazolyl)-acetamido cephalosporanic acids” (Roussel Uclaf, priority 1979, dated 1984)
